The values that follow come from patent US20200069644A1, “NOVEL USE OF A FORMYL PEPTIDE RECEPTOR 2/ LIPOXIN A4 RECEPTOR (FPR2/ALX) AGONIST FOR TREATMENT OF HEART FAILURE” (BRISTOL- MYERS SQUIBB COMPANY, priority 2017, published 2020).

pEC50, pIC50: −log10 of the molar value.

The subject of test [1] is angiotensin II-induced cardiac fibrosis in mice. Put plainly: Angiotensin II-induced cardiac fibrosis mouse model. Format: in vivo. The conditions noted are these: 3 mg/kg QD for 3 weeks, P<0.001. As to the method:
To assess myocardial fibrosis in the setting of non-ischemic heart disease with hypertension, mice were challenged with angiotensin II to stimulate cardiac hypertrophy and left ventricular fibrosis. Mice were administered angiotensin II using subcutaneously implanted osmotic mini-pumps (˜2 mg/kg/day). A separate group of mice were implanted with subcutaneous pumps containing saline (surgical “sham” group); these mice served as control for pump implantation surgery. Mice were treated with Compound 1 (3 mg/kg, QD) or dosing solution without compound (QD, referred to as vehicle) starting 7 days following pump implantation. In this model, cardiac fibrosis development reaches its peak and without treatment, will remain fibrotic at this high level until the angII is depleted (˜4 weeks post implantation). Interventional treatment with Compound 1 to regress cardiac fibrosis was given to mice for 3 weeks. At the end of treatment phase, hearts were removed from animals and evaluated for collagen levels/fibrosis by cross-sectional histology of the hearts.
Myocardial fibrosis was evaluated in the mouse with continuous angiotensin II challenge administered by subcutaneous osmotic mini-pump. This is a model of non-ischemic heart disease.
The effect of Compound 1 on regression of established cardiac fibrosis was evaluated in the angiotensin II-induced cardiac fibrosis mouse model. […]

Another test addresses T1, Human FPR2 (Homo sapiens, UniProt P25090).
T1 construct: expressed in transfected cells; host or cells: CHO-A12
T1 sequence (P25090 1-351): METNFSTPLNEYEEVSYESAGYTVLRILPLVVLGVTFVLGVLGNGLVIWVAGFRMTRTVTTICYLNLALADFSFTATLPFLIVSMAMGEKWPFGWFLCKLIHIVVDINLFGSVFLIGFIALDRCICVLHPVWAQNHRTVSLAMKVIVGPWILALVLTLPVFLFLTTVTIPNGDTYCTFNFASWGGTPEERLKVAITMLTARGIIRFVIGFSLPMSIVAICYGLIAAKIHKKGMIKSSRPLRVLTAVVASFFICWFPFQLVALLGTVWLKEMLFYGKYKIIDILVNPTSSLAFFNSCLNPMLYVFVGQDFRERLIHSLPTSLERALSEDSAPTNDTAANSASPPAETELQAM
Put plainly: FPR2 cAMP assay (cAMP inhibition). The format is cell-based. The method, then: A mixture of forskolin (5 μM final for FPR2 or 10 μM final for FPR1) and IBMX (200 μM final) were added to 384-well Proxiplates (Perkin-Elmer) pre-dotted with test compounds in DMSO (1% final) at final concentrations in the range of 0.1 nM to 10 μM. CHO overexpressing human FPR1 or human FPR2 receptors were cultured in F-12 (Ham's) medium supplemented with 10% qualified FBS, 250 μg/ml zeocin and 300 μg/ml hygromycin (Life Technologies). Reactions were initiated by adding 2,000 human FPR2 cells per well or 4,000 human FPR1 cells per well in Dulbecco's PBS (with calcium and magnesium) (Life Technologies) supplemented with 0.1% BSA (Perkin-Elmer). The reaction mixtures were incubated for 30 min at room temperature. The level of intracellular cAMP was determined using the HTRF HiRange cAMP assay reagent kit (Cisbio) according to manufacturer's instruction. Solutions of cryptate conjugated anti-cAMP and d2 flurorophore-labelled cAMP were made in a supplied lysis buffer separately. […] After a 1 h room temperature incubation, time-resolved fluorescence intensity was measured using the Envision (Perkin-Elmer) at 400 nm excitation and dual emission at 590 nm and 665 nm. […] The potency and activity of Compound 1 to inhibit cAMP production was then determined by fitting to a 4-parametric logistic equation from a plot of cAMP level versus compound concentrations. […]

The subject of the next test is HL-60 cell line. Put plainly: HL-60 cell migration assay, antagonist mode (SAA-stimulated chemotaxis). The format is cell-based. The conditions noted are these: Homo sapiens; HL-60 cells; read-out: IC50, antagonism of chemotaxis stimulated by SAA. The method, then: The HL-60 cell line (ATCC, CCL-240, lot 60398411) was maintained in IMDM (Life Tech, cat 12440-053) medium supplemented with 20% fetal bovine serum, 50 U/ml penicillin, and 50 μg/ml streptomycin at 37° with 5% CO2. Cells were differentiated into the granulocyte lineage with DMSO; 2.5×10^5 cells/ml were incubated with 1.25% DMSO for 5 days.
After 5 day differentiation, the cells were resuspended in phenol free RPMI (Invitrogen, cat 11835) with 0.2% fatty acid free BSA at a concentration of […]. The dHL-60 cells (10^5 in 100 μl) were pre-incubated for 15 minutes with varying concentrations of the […] at 37° with 5% CO2. Then 0.8 μM of the recombinant serum amyloid A1 peptide (rSAA1, PeproTech, Cat #300-53) was added to the bottom chamber of each HTS transwell-96 well plate (Corning #3387). Migration was induced by placing […] and the dHL60 cells mixture in the top chamber of the transwell plate. Cells were allowed to migrate for 120 min across the 5 micron filters at 37° C. with 5% CO2. Following migration, neutrophils or dHL-60 cells remaining in the transwell lower chamber (migrated fraction) were quantitated using the cell-titer-glo luminescence cell viability assay (Promega, G7571). […]

In the case of `COc1cc(F)c([C@@H]2CNC(=O)[C@H]2NC(=O)Nc2ccccc2)c(F)c1` [Compound 1, 1-((3S,4R)-4-(2,6-difluoro-4-methoxyphenyl)-2-oxopyrrolidin-3-yl)-3-phenylurea], in test [1] (started 7 days after pump implantation), the “reduction of left ventricular fibrosis vs. vehicle treatment group” value was 90%. Besides, the “reduction of fibrosis relative to 7-day baseline group” value in test [1] is recorded as 89%. In addition, at Human FPR2 (CHO cell lines, cAMP), the “selectivity for human FPR2 vs. FPR1” value was 446 fold. For the same compound, the pEC50 (in general, the negative decadic logarithm of the EC50, by convention in mol/L) on Human FPR2 (Human FPR2/CHO-A12) is 8.55. Besides, the negative-log IC50 (pIC50) (commonly −log10 of the IC50, conventionally taken in molar units) with HL-60 cell line is 7.24.
